Results taken from patent US20060178374A1, “Aminoheteroaryl compounds as protein kinase inhibitors” (AGOURON PHARMACEUTICALS, INC., priority 2004, published 2006).

Biological target: HGFR (c-Met) (Homo sapiens, UniProt P08581)
Test: HGFR Continuous-Coupled Spectrophotometric Assay
Format: biochemical
Conditions: HGFR enzyme 50 nM, Met-2 peptide substrate, 37° C.
Procedure, shortened: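 Human HGFR (50 nM final) phosphorylates the Met-2 activation-loop peptide, with ADP formation coupled through PK/LDH to NADH consumption, read as the A340 decrease over 10 min at 37 °C. Buffer was HEPES pH 7.5 with MgCl2, DTT, PEP and ATP.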

HGFR (c-Met), sequence (P08581 974-1390): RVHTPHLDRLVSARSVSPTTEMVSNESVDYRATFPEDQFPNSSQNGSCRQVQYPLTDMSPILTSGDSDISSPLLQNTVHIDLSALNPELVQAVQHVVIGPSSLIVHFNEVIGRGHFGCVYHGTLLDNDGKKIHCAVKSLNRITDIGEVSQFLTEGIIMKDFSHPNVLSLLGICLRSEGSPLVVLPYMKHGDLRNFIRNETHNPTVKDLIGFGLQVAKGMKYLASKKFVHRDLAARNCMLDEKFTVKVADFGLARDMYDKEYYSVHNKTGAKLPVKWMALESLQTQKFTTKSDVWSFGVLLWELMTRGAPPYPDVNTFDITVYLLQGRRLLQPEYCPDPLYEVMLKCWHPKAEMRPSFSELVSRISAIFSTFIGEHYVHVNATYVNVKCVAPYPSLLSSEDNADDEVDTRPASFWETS

Row | SMILES | Ki
1 | CC(Oc1cc(-c2cnc(OC3CCNCC3)nc2)cnc1N)c1c(Cl)ccc(F)c1Cl (stereo not shown) [Example 116, 3-[1-(2,6-dichloro-3-fluorophenyl)ethoxy]-5-[2-(piperidin-4-yloxy)pyrimidin-5-yl]pyridin-2-amine] | 0.16 µM
2 | COc1ncc(-c2cnc(N)c(OC(C)c3c(Cl)ccc(OC)c3Cl)c2)cn1 (stereo not shown) [Example 117, 3-[1-(2,6-dichloro-3-methoxyphenyl)ethoxy]-5-(2-methoxypyrimidin-5-yl)pyridin-2-amine] | 0.16 µM
3 | CC(Oc1cc(-c2ccc(C(=O)N(C)CCN(C)C)cc2)cnc1N)c1c(Cl)ccc(F)c1Cl (stereo not shown) [Example 118, 4-{6-amino-5-[1-(2,6-dichloro-3-fluorophenyl)ethoxy]pyridin-3-yl}-N-[2-(dimethylamino)ethyl]-N-methylbenzamide] | 0.03 µM
4 | C[C@H](Oc1cc(-c2ccc(C(=O)N3CCNCC3)cc2)cnc1N)c1c(Cl)ccc(F)c1Cl [Example 119, 3-[(1S)-1-(2,6-dichloro-3-fluorophenyl)ethoxy]-5-[4-(piperazin-1-ylcarbonyl)phenyl] pyridin-2-amine] | 1.5 µM
5 | CC(Oc1cc(-c2cnc(N3CCN(C(=O)OC(C)(C)C)CC3)nc2)cnc1N)c1c(Cl)ccc(F)c1Cl (stereo not shown) [Example 120, tert-butyl 4-(5-{6-amino-5-[1-(2,6-dichloro-3-fluorophenyl)ethoxy]pyridin-3-yl}pyrimidin-2-yl)piperazine-1-carboxylate] | 1 µM
6 | CC(Oc1cc(-c2cnc(N3CCNCC3)nc2)cnc1N)c1c(Cl)ccc(F)c1Cl (stereo not shown) [Example 121, 3-[1-(2,6-dichloro-3-fluorophenyl)ethoxy]-5-(2-piperazin-1-ylpyrimidin-5-yl)pyridin-2-amine] | 0.053 µM
7 | CC(Oc1cc(-c2ccc(C(=O)N(C)CCCN(C)C)cc2)cnc1N)c1c(Cl)ccc(F)c1Cl (stereo not shown) [Example 122, 4-{6-amino-5-[1-(2,6-dichloro-3-fluorophenyl)ethoxy]pyridin-3-yl}-[3-(dimethylamino)propyl]-N-methylbenzamide] | 0.025 µM
8 | CNCCN(C)C(=O)c1ccc(-c2cnc(N)c(OC(C)c3c(Cl)ccc(F)c3Cl)c2)cc1 (stereo not shown) [Example 123, 4-{6-amino-5-[1-(2,6-dichloro-3-fluorophenyl)ethoxy]pyridin-3-yl}-N-methyl-N-[2-(methylamino)ethyl]benzamide] | 0.06 µM
9 | CC(Oc1cc(-c2ccc(NCC3(O)CCNCC3)nc2)cnc1N)c1c(Cl)ccc(F)c1Cl (stereo not shown) [Example 124, 4-[({6′-amino-5′-[1-(2,6-dichloro-3-fluorophenyl)ethoxy]-3,3′-bipyridin-6-yl}amino)methyl]piperidin-4-ol] | 0.02 µM
10 | CC(Oc1cc(-c2ccc(C3CCNCC3)cc2)cnc1N)c1c(Cl)ccc(F)c1Cl (stereo not shown) [Example 125, 3-[1-(2,6-dichloro-3-fluorophenyl)ethoxy]-5-(4-piperidin-4-ylphenyl)pyridin-2-amine] | 0.025 µM
11 | C[C@@H](Oc1cc(-c2ccc(C(=O)N(C)CCN(C)C)cc2)cnc1N)c1c(Cl)ccc(F)c1Cl [Example 126, 4-{6-amino-5-[(1 R)-1-(2,6-dichloro-3-fluorophenyl)ethoxy]pyridin-3-yl}-N-[2-(dimethylamino)ethyl]-N-methylbenzamide] | 0.01 µM
12 | C[C@@H](Oc1cc(-c2ccc(CO)cc2)cnc1N)c1c(Cl)ccc(F)c1Cl [Example 127, (4-{6-amino-5-[(1R)-1-(2,6-dichloro-3-fluorophenyl)ethoxy]pyridin-3-yl}phenyl)methanol] | 0.051 µM
13 | C[C@@H](Oc1cc(-c2ccc(C(=O)N(C)CCCN(C)C)cc2)cnc1N)c1c(Cl)ccc(F)c1Cl [Example 128, 4-{6-amino-5-[(1 R^15)-1-(2,6-dichloro-3-fluorophenyl)ethoxy]pyridin-3-yl}-N-[3-(dimethylamino)propyl]-N-methylbenzamide] | 0.01 µM
14 | C[C@@H](Oc1cc(-c2ccc(C(=O)N3CCN(C(=O)OC(C)(C)C)CC3)cc2)cnc1N)c1c(Cl)ccc(F)c1Cl [Example 129, tert-butyl 4-(4-{6-amino-5-[(1 R)-1-(2,6-dichloro-3-fluorophenyl)ethoxy]pyridin-3-yl}benzoyl)piperazine-1-carboxylate] | 0.03 µM
15 | CC(Oc1cc(-c2ccc(CO)cc2)cnc1N)c1c(Cl)ccc(F)c1Cl (stereo not shown) [Example 130, (4-{6-amino-5-[1-(2,6-dichloro-3-fluorophenyl)ethoxy]pyridin-3-yl}phenyl)methanol] | 0.071 µM
16 | COc1ccc(-c2cnc(N)c(OC(C)c3c(Cl)ccc(F)c3Cl)c2)cc1 (stereo not shown) [Example 131, 3-[1-(2,6-dichloro-3-fluorophenyl)ethoxy]-5-(4-methoxyphenyl)pyridin-2-amine] | 0.133 µM
17 | CC(Oc1cc(-c2cccc(CN)c2)cnc1N)c1c(Cl)ccc(F)c1Cl (stereo not shown) [Example 132, 5-[3-(aminomethyl)phenyl]-3-[1-(2,6-dichloro-3-fluorophenyl)ethoxy]pyridin-2-amine] | 0.069 µM
18 | CC(Oc1cc(-c2cccc(CC#N)c2)cnc1N)c1c(Cl)ccc(F)c1Cl (stereo not shown) [Example 133, (3-{6-amino-5-[1-(2,6-dichloro-3-fluorophenyl)ethoxy]pyridin-3-yl}phenyl)acetonitrile] | 0.041 µM
19 | CC(Oc1cc(-c2ccc(CC#N)cc2)cnc1N)c1c(Cl)ccc(F)c1Cl (stereo not shown) [Example 134, (4-{6-amino-5-[1-(2,6-dichloro-3-fluorophenyl)ethoxy]pyridin-3-yl}phenyl)acetonitrile] | 0.092 µM

Row | SMILES | Ki
20 | CC(Oc1cc(-c2ccc(C(=O)N(C)C)cc2)cnc1N)c1c(Cl)ccc(F)c1Cl (stereo not shown) [Example 135, 4-{6-amino-5-[1-(2,6-dichloro-3-fluorophenyl)ethoxy]pyridin-3-yl}-N,N-dimethylbenzamide] | 0.037 µM
21 | CC(Oc1cc(-c2ccc(O)cc2)cnc1N)c1c(Cl)ccc(F)c1Cl (stereo not shown) [Example 136, 4-{6-amino-5-[1-(2,6-dichloro-3-fluorophenyl)ethoxy]pyridin-3-yl}phenol] | 0.073 µM
22 | CC(Oc1cc(-c2ccc(NS(C)(=O)=O)cc2)cnc1N)c1c(Cl)ccc(F)c1Cl (stereo not shown) [Example 138, N-(4-{6-amino-5-[1-(2,6-dichloro-3-fluorophenyl)ethoxy]pyridin-3-yl}phenyl) methanesulfonamide] | 0.032 µM
23 | CCS(=O)(=O)c1ccc(-c2cnc(N)c(OC(C)c3c(Cl)ccc(F)c3Cl)c2)cc1 (stereo not shown) [Example 139, 3-[1-(2,6-dichloro-3-fluorophenyl)ethoxy]-5-(4-(ethylsulfonyl)phenyl]pyridin-2-amine] | 0.053 µM
24 | COc1cc(-c2cnc(N)c(OC(C)c3c(Cl)ccc(F)c3Cl)c2)ccc1O (stereo not shown) [Example 140, 4-{6-amino-5-[1-(2,6-dichloro-3-fluorophenyl)ethoxy]pyridin-3-yl}-2-methoxyphenol] | 0.039 µM
25 | CC(Oc1cc(-c2cccc(NS(C)(=O)=O)c2)cnc1N)c1c(Cl)ccc(F)c1Cl (stereo not shown) [Example 141, N-(3-{6-amino-5-[1-(2,6-dichloro-3-fluorophenyl)ethoxy]pyridin-3-yl}phenyl) methanesulfonamide] | 0.054 µM
26 | CC(Oc1cc(-c2cccc(C(=O)N(C)C)c2)cnc1N)c1c(Cl)ccc(F)c1Cl (stereo not shown) [Example 142] | 0.059 µM
27 | CC(Oc1cc(-c2ccc3[nH]cc(CN(C)C)c3c2)cnc1N)c1c(Cl)ccc(F)c1Cl (stereo not shown) [Example 143, 3-[1-(2,6-dichloro-3-fluorophenyl)ethoxy]-5-{3-[(dimethylamino)methyl]-1H-indol-5-yl}pyridin-2-amine] | 0.072 µM
28 | CC(Oc1cc(-c2ccc(C[C@H](N)C(=O)O)cc2)cnc1N)c1c(Cl)ccc(F)c1Cl (stereo partly shown) [Example 144, 4-{6-amino-5-[1-(2,6-dichloro-3-fluorophenyl)ethoxy]pyridin-3-yl}phenylalanine] | 0.08 µM
29 | CC(Oc1cc(-c2ccc(CO)nc2)cnc1N)c1c(Cl)ccc(F)c1Cl (stereo not shown) [Example 145, {6′-amino-5′-[1-(2,6-dichloro-3-fluorophenyl)ethoxy]-3,3′-bipyridin-6-yl}methanol] | 0.069 µM
30 | CC(Oc1cc(-c2ccc(CO)cn2)cnc1N)c1c(Cl)ccc(F)c1Cl (stereo not shown) [Example 146, {6′-amino-5′-[1-(2,6-dichloro-3-fluorophenyl)ethoxy]-2,3′-bipyridin-5-yl}methanol] | 0.655 µM
31 | CC(=O)c1ccc(-c2cnc(N)c(OC(C)c3c(Cl)ccc(F)c3Cl)c2)cc1 (stereo not shown) [Example 147, 1-(4-{6-amino-5-[1-(2,6-dichloro-3-fluorophenyl)ethoxy]pyridin-3-yl}phenyl) ethanone] | 0.073 µM
32 | CC(Oc1cc(-c2ccc3c(ccn3C)c2)cnc1N)c1c(Cl)ccc(F)c1Cl (stereo not shown) [Example 148, 3-[1-(2,6-dichloro-3-fluorophenyl)ethoxy]-5-(1-methyl-1H-indol-5-yl)pyridin-2-amine] | 0.153 µM
33 | COc1ccc(-c2cnc(N)c(OC(C)c3c(Cl)ccc(F)c3Cl)c2)cc1CC#N (stereo not shown) [Example 149, (5-{6-amino-5-[1-(2,6-dichloro-3-fluorophenyl)ethoxy]pyridin-3-yl}-2-methoxyphenyl) acetonitrile] | 0.37 µM
34 | CC(O)c1cccc(-c2cnc(N)c(OC(C)c3c(Cl)ccc(F)c3Cl)c2)c1 (stereo not shown) [Example 150, 1-(3-{6-amino-5-[1-(2,6-dichloro-3-fluorophenyl)ethoxy]pyridin-3-yl}phenyl)ethanol] | 0.2 µM
35 | CC(Oc1cc(-c2ccc(C3(C#N)CCNCC3)cc2)cnc1N)c1c(Cl)ccc(F)c1Cl (stereo not shown) [Example 152, 4-(4-{6-amino-5-[1-(2,6-dichloro-3-fluorophenyl)ethoxy]pyridin-3-yl}phenyl) piperidine-4-carbonitrile] | 0.012 µM
36 | CC(Oc1cc(-c2cccc(C3(C#N)CCNCC3)c2)cnc1N)c1c(Cl)ccc(F)c1Cl (stereo not shown) [Example 153, 4-(3-{6-amino-5-[1-(2,6-dichloro-3-fluorophenyl)ethoxy]pyridin-3-yl}phenyl) piperidine-4-carbonitrile] | 0.006 µM
37 | CC(=O)N1CCC(C#N)(c2cccc(-c3cnc(N)c(OC(C)c4c(Cl)ccc(F)c4Cl)c3)c2)CC1 (stereo not shown) [Example 154, 1-acetyl-4-(3-{6-amino-5-[1-(2,6-dichloro-3-fluorophenyl)ethoxy]pyridin-3-yl}phenyl) piperidine-4-carbonitrile] | 0.022 µM
